# The source made the active and inactive calls.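 Rule for the calls: active = maximal inhibition of USP17 at or above 30% in the confirmation dose-response, a value not among the printed readouts; inactive = the rest.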
# Target: Ubiquitin carboxyl-terminal hydrolase 17-like protein 5 (Homo sapiens) (UniProt A8MUK1)
# Assay: ubiquitin-specific protease 17 inhibitors, concentration series, biochemical, verification of primary actives (AID 1645864)
# Settings: purified USP17, ubiquitin-rhodamine cleavage fluorescence, 3 h
# Sequence of Ubiquitin carboxyl-terminal hydrolase 17-like protein 5 (Homo sapiens) (A8MUK1 whole entry, looked up): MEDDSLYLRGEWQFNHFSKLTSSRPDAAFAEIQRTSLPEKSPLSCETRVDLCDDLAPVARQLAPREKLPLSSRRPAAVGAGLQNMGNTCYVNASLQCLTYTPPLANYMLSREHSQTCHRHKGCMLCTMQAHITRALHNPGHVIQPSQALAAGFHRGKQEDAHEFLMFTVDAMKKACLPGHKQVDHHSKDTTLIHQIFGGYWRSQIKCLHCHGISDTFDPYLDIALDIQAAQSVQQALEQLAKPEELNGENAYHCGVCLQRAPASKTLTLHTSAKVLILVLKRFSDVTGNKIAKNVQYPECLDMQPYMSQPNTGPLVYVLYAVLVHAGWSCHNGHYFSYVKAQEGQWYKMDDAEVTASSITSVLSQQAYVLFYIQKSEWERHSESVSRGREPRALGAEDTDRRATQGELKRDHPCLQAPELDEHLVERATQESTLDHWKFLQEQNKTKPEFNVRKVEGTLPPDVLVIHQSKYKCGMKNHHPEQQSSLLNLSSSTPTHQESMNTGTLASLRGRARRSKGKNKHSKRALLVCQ
row,SMILES,IC50
1,O=C(Nc1ccc(-c2nnc3n2CCCCC3)cc1)c1ccc2c(c1)OCO2,> 50 µM (inactive)
2,Cn1ccnc1CN1C[C@H]2CCN(c3ncccn3)C[C@H]2C1,> 50 µM (inactive)
3,CCOc1ccc(CCNC(=O)c2cccc3c2C(=O)N(CCOC)C3)cc1OCC,> 50 µM (inactive)
4,C/C=C\C1=CC(=O)[C@]23C[C@H]2[C@]2(C)CO[C@@]1(O)[C@@]3(O)O2,> 50 µM (inactive)
5,COc1cccc(N2CCN(C(=O)C3CCN(c4nc(NC(C)=O)ns4)CC3)CC2)c1,29.2 µM
6,O=C(COc1ccc(S(=O)(=O)N2CCOCC2)cc1)N1CCC(Cc2ccccc2)CC1,> 50 µM (inactive)
7,CCCC(=O)Nc1nc2ccc(CCC(=O)NCc3ccc(F)cc3)cc2s1,25 µM
8,CC(C)N1CC[C@@H]2[C@H](C1)CN2C(=O)Nc1cccc(F)c1,> 50 µM (inactive)
9,CCCc1nc2sc3c(NCCc4ccc(OC)c(OC)c4)ncnc3c2c2c1CCC2,> 50 µM (inactive)
10,N#Cc1c(Cl)cccc1Oc1ccc(S(=O)(=O)N2CCC(O)CC2)cc1,27.4 µM
11,COc1ccc2c(c1)CCc1c-2n[nH]c1C(=O)Nc1cc(C)on1,4.67 µM
12,O=C(CN1CCCCC1)Nc1nnc(-c2ccc([N+](=O)[O-])cc2)s1,19.9 µM
13,COc1cccc(/C=C/C(=O)Nc2ccc(C)c(Cl)c2)c1,43.4 µM
14,COc1ccc(OC)c2c(C)cc(N3CCN(S(=O)(=O)c4ccc5c(c4)CCCN5S(C)(=O)=O)CC3)nc12,9.83 µM
15,COc1cccc(NC(=O)c2ccc(F)cc2Cl)c1,> 50 µM (inactive)
16,O=C(Nc1ccc2c(c1)OCCO2)c1cc(CN2CCCC2)on1,> 50 µM (inactive)
17,O=C(Nc1cccc(F)c1)c1ncoc1-c1ccco1,> 50 µM (inactive)

row,SMILES,IC50
1,CC(C)Cc1cc(-c2nnc3sc(-c4ccco4)nn23)n[nH]1,> 50 µM (inactive)
2,O=C(O)CCCCCN1C(=O)CC(c2ccc(Cl)cc2)CC1=O,18.2 µM
3,c1coc(CNc2nc3ccccc3n3nnnc23)c1,> 50 µM (inactive)
4,COc1ccc(NC(=O)C2CC(=O)Nc3c(-c4ccc(Cl)cc4)cnn32)c(OC)c1 (configuration not stated),9.36 µM
5,COc1ccc(CNC(=O)CCc2nc3sc4c(c3c(=O)[nH]2)CCCCC4)cc1,> 50 µM (inactive)
6,CCOc1cc(C2C3=C(CC(C)(C)CC3=O)Nc3onc(C)c32)ccc1O (configuration not stated),39.7 µM
7,COc1ccc(C(=O)N2CCCC3(C2)Nc2cccnc2NC3=NC2CCCC2)cn1 (configuration not stated),> 50 µM (inactive)
8,COc1ccc(-c2nnc(SCc3ccccc3C#N)o2)c(OC)c1,> 50 µM (inactive)
9,COc1ccc(-c2cnnn2-c2ccc(NC(=O)c3c(F)cccc3F)cc2)cc1OC,> 50 µM (inactive)
10,O=C(Nc1cccc(S(=O)(=O)N2CCCC2)c1)c1ccc2c(=O)n3c(nc2c1)CCCCC3,> 50 µM (inactive)
11,CC(=O)N1CCc2cc(S(=O)(=O)NCc3ccc(C)cc3)ccc21,> 50 µM (inactive)
12,CC(=O)NCc1nc(-c2ccc3c(c2)nc(C)c(=O)n3C2CCCC2)no1,> 50 µM (inactive)
13,Cc1ccc(C(C)C)cc1OCCOCCN1CCNCC1,> 50 µM (inactive)
14,COc1ccc(CCNC(=O)COc2ncnc3oc(C)c(C)c23)cc1OC,> 50 µM (inactive)
15,O=C(c1ccc2cc[nH]c2c1)N1CCC(Nc2cccnc2)C1 (configuration not stated),> 50 µM (inactive)
16,O=C(COC(=O)c1ccc(NS(=O)(=O)c2ccc3c(c2)OCCO3)cc1)NCc1ccc(Cl)cc1,> 50 µM (inactive)

# The remaining lines, values ahead:
row,IC50,SMILES
1,2.62 µM,COc1cc(C(=O)NC(Cc2ccccc2)c2nc3ccccc3[nH]2)cc(OC)c1OC (configuration not stated)
2,30.5 µM,O=C(NCC(c1cccnc1)N1CCc2ccccc2C1)C(=O)Nc1ccc2c(c1)OCO2 (configuration not stated)
3,2.41 µM,O=C(COc1ccc(Cl)cc1)N1CCc2cc3ccccc3nc21
4,6.33 µM,N#Cc1ccc(NC(=O)Nc2cccn(Cc3ccccc3F)c2=O)cc1
5,4.32 µM,Cc1cccc(C(=O)OCC(=O)Nc2ccc3[nH]c(=O)[nH]c3c2)c1C
6,1.9 µM,COc1cc(NC(=O)Cn2nc(-c3ccc(F)cc3)ccc2=O)ccc1-n1cnnn1
7,29.8 µM,COc1ccc(CNC(=O)c2ccccc2N2C(=O)N3CCc4c([nH]c5ccccc45)[C@@]3(C)C2=O)cc1
8,> 50 µM (inactive),CCC(=O)OCc1cnc(C)c2oc(=O)c(-c3nc(-c4ccccc4)no3)cc12
9,> 50 µM (inactive),COc1ccccc1CNC(=O)c1ccccc1OCc1ccccc1Cl
10,> 50 µM (inactive),O=C(Cc1ccc(Cl)c(Cl)c1)OCC(=O)c1c[nH]c2ccccc12
11,5.81 µM,COc1ccc(Cl)cc1NC(=O)Cn1c(=O)cc(C)c2c(C)nn(-c3ccccc3)c21
12,29.8 µM,O=C(NCCn1ccc2ccccc21)c1cc2ccccc2oc1=O
13,9.01 µM,Cc1cc(N2CCC(NC(=O)NCc3ccc(F)cc3)C2=O)ccc1F (configuration not stated)
14,5.43 µM,CCOc1ccc(NC(=O)Cn2c(=O)n(CCC(=O)NCc3ccco3)c(=O)c3ccccc32)cc1
15,27.7 µM,COc1ccc(NC(=O)c2sc(N3CCOCC3)nc2-c2ccccc2)c(OC)c1
16,34.5 µM,Cc1cccc(-c2noc(CCn3c(=O)[nH]c4ccccc4c3=O)n2)c1
17,5.49 µM,COc1ccc(-c2cc3c(=O)n(CC(=O)Nc4ccccc4Cl)ccn3n2)cc1
18,25.3 µM,O=C1CC(C(=O)Nc2ccccc2F)n2nc(-c3ccccc3)cc2N1 (configuration not stated)
19,41.8 µM,O=C(/C=C/c1ccc(F)cc1)N1CCC(Cc2ccccc2)CC1
20,22.5 µM,CCc1cc2c(=O)[nH]c(Cc3ccc(OC)cc3)nc2s1

row,IC50,SMILES
1,> 50 µM (inactive),CCN(Cc1ccccc1)S(=O)(=O)c1ccc(C(=O)Nc2ccc3c(c2)OCCO3)cc1
2,> 50 µM (inactive),CCn1ccc2c(cc(C(=O)Nc3cc(F)ccc3F)n2C)c1=O
3,> 50 µM (inactive),O=S(=O)(c1ccccc1Cl)N1CCN(c2ccc3nnc(-c4ccco4)n3n2)CC1
4,> 50 µM (inactive),Cc1c(Cl)cccc1NC(=O)Cn1c(=O)c2ccccc2n2nncc12
5,> 50 µM (inactive),Cc1cc(NC(=O)c2nnn(-c3ccccc3Cl)c2C)no1
6,> 50 µM (inactive),O=C(NCc1ccco1)c1ccc2c(c1)N(Cc1cccc(F)c1)C(=O)c1ccccc1S2
7,13.7 µM,CC(=O)c1sc(NC(=O)/C=C/c2ccccc2)nc1-c1ccccc1
8,> 50 µM (inactive),CCN(CC(=O)Nc1cc(C)on1)c1cccc2ccccc12
9,2.85 µM,CC(c1ccccc1)n1c(-c2ccc(F)cc2)nc2c(c(=O)c3ccccc3n2C)c1=O (configuration not stated)
10,> 50 µM (inactive),CCN(CC)c1nc(F)c2c(c1F)S(=O)(=O)CCN2Cc1ccccc1
11,2.5 µM,Cc1ccc(CNC(=O)CCCn2c(=O)c3sccc3n(CC(=O)OCc3ccccc3)c2=O)cc1
12,29.7 µM,O=C(CCCC(=O)c1ccccc1)Nc1ccc(F)cc1
13,33 µM,O=C(Cn1c(=O)n(Cc2ccc3c(c2)OCO3)c(=O)c2ncccc21)c1ccc(Cl)cc1
14,> 50 µM (inactive),Cc1ccc(NC(=O)c2c3c(nc4ccccc24)CCCCC3)c(C)c1
15,> 50 µM (inactive),COC(=O)C1C(c2ccc(OC)cc2)C2(C(=O)c3ccccc3C2=O)C2C=Cc3ccccc3N12 (configuration not stated)
16,24 µM,COc1ccc(NC(=O)Cn2cc(C(=O)c3ccc(F)cc3)c(=O)c3cc(C)ccc32)cc1
17,0.691 µM,COc1cc2c(cc1NC(=O)c1ccc(-n3cnnn3)cc1)oc1ccccc12
18,> 50 µM (inactive),O=C(NCCc1ccccc1)c1nnn(Cc2cccc(Cl)c2)c1-n1cccc1
19,2.36 µM,CNC(=O)c1cc2c(=O)n3cccc(C)c3nc2n1Cc1ccccc1
